Source: US20230416261A1, “ETHANEDIAMINE-HETEROCYCLE DERIVATIVES AS INHIBITORS OF PROTEIN ARGININE METHYLTRANSFERASES” (Board of Regents, The University of Texas System, priority 2021, published 2023)

Tests used:
PRMT1 [1] = molecular target: T1, PRMT1 (Homo sapiens, UniProt Q99873); assay: PRMT1 Enzymatic Assay (LANCE TR-FRET, methylation of histone H4 at Arg3); format: biochemical; set-up: purchased SignalChem P365-380G; settings: PRMT1 1.5 nM, SAM 1 μM, biotinylated histone H4 (1-21) 25 nM; read-out: PRMT-1 IC50
Protocol: In order to measure PRMT1 enzymatic activity the LANCE TR-FRET assay from PerkinElmer was used to follow the methylation of histone H4 at Arg3 using S-adenosyl-L-methionine (SAM) as the methyl group donor.
This enzymatic assay was performed in a 384 well, white, low volume plate (PerkinElmer, Catalog 6008289) with assay buffer consisting of 50 mM Hepes (pH 8) (Teknova, Catalog #H1090), 1 mM TCEP (Sigma, Catalog #C4706), and 0.003% Tween-20 (Thermo, Catalog #85114). Stock solutions of the test compounds were prepared in 100% DMSO (Sigma, Catalog #D2650) and serially diluted 1:3 using 100% DMSO. Compounds were additionally diluted 1:40 in assay buffer, and 2 uL/well were transferred to the assay plate. 4 uL/well (final concentration 1.5 nM) of PRMT1 protein (SignalChem, Catalog #P365-380G) diluted in assay buffer was added to the assay plate followed by a 15 min preincubation at room temperature. 4 uL/well of SAM (Sigma, Catalog #A7007) and biotinylated histone H4 (1-21) (AnaSpec, Catalog #62555) (final concentrations 1 μM and 25 nM, respectively) diluted in assay buffer were then added to the assay plate followed by a 1 hour reaction time. Final concentrations of PRMT1, SAM, and histone H4 (1-21) refer to a […].
Detection of methylated histone H4 (H4R^3me) was achieved by combining LANCE Ultra Europium-anti-H4R^3me antibody (PerkinElmer, Catalog #TRF04-14), LANCE Ultra ULight-anti-streptavidin antibody (PerkinElmer, Catalog #TRF0102), and sinefungin (Sigma, Catalog #S8559) (final concentrations 2 nM, 50 nM, and 100 μM respectively) in 1× LANCE detection buffer (PerkinElmer, Catalog #CR97-100) and adding L/well of the detection solution to the assay plate. Detection reagents were allowed to react for 1 hour at room temperature. Final concentrations in the detection solution refer to a L volume. The europium fluorescence signal and the ULight TR-FRET signal were measured using a BioTek Synergy Neo plate reader: excitation at 330 nm, emission at 620 nm and 665 nm respectively, and the ratio of the two signals (665 nm/620 nm) was used for curve fitting. IC50 values were calculated using a four-parameter logistic curve fit using Genedata Screener software.

DOHH2 cells = assay: DOHH2 Long Term Phenotypic Assay (7 days, Cell Titer-Glo viability); format: cell-based; settings: Cell Titer-Glo 2.0
Protocol: DOHH2 cells were kindly provided by Michael Green (MDACC). The cells were routinely maintained in RPMI-1640 Medium (ATCC, Catalog #30-2001) supplemented with 10% fetal bovine serum (Sigma, Catalog #F2442), 100 units/mL penicillin and 100 μg/mL streptomycin (Gibco, Catalog #15140-122) in a humidified incubator (37° C., 5% CO2). Cells were seeded onto a white, CulturPlate-384 (Perkin Elmer, catalog #6007680) at a density of 250 cells per well in a volume of 50 μL. Stock solutions of the test compounds were prepared in 100% DMSO (Sigma, Catalog #D2650) and serially diluted 1:3 using 100% DMSO. Compounds were additionally diluted 1:33 in culture medium, and 10 μL/well was transferred to the tissue culture plate. Following the compound addition, the plate was incubated at 37° C. and 5% CO2 for 7 days. Cells were then mixed and a 30 μL volume was removed. Viability was assessed by a 30 μL addition of Cell Titer-Glo 2.0 (Promega, catalog #G9243). The plate was then shaken on an orbital shaker at 300 RPM for 10 minutes at room temperature, in the dark. Luminescence was measured using a PerkinElmer Envision™ plate reader. IC50 values were calculated using a four-parameter logistic curve fit using Genedata Screener software.

PRMT1 [2] = molecular target: T1, PRMT1; assay: PRMT1 RKO Cellular Target Engagement Assay (In-Cell Western, asymmetric di-methyl arginine); format: cell-based; settings: RKO cells, 48 hr compound incubation; read-out: RKO IC50 (PRMT-1 Target Engagement)
Protocol: RKO cells were routinely maintained in EMEM media (ATCC, Catalog #30-2003) supplemented with 10% fetal bovine serum (Sigma, Catalog #F2442) using a humidified incubator (37° C., 5% CO2, and ambient O2).
In preparation for the In-Cell Western assay, cells were harvested and resuspended in EMEM media supplemented with 10% fetal bovine serum. Cells were seeded onto a 384 well, black, clear bottom, Poly-D-Lysine coated tissue culture plate (Greiner, Catalog #781946) at a density of 1,000 cells/well in a volume of 40 μL. The culture plate was incubated for 24 hr at 37° C. with 5% CO2 and ambient O2. Stock solutions of the test compounds were prepared in 100% DMSO (Sigma, Catalog #D2650) and serially diluted 1:3 using 100% DMSO. Compounds were additionally diluted 1:40 in culture medium, and 10 μL/well was transferred to the tissue culture plate. Following the compound addition the microplate was incubated at 37° C. for 48 hr.
The media was removed, the plate was washed with 1× PBS (Fisher Bioreagents, Catalog #BP399-20), and cells were fixed for 10 min using 30 μL/well of 4% paraformaldehyde (Electron Microscopy Sciences, Catalog #15710). The paraformaldehyde was removed, the plate was again washed with 1× PBS, and cells were permeabilized for 15 min using 30 μL/well of 1× PBS containing 0.5% Triton-X 100 (Sigma, Catalog #1001748095). The permeabilization buffer was removed, the plate was washed with 1× PBST (Boston BioProducts, Catalog #IBB-171X), and 50 μL/well of blocking buffer (LI-COR, Catalog #927-40000) was added followed by a 1 hour incubation at room temperature. The blocking buffer was removed, and 20 μL/well of anti-asymmetric di-methyl arginine antibody (Cell Signaling, Catalog #13522S) diluted 1:1000 in LI-COR blocking buffer was added to the plate and incubated overnight, in the dark at 4° C.
The primary antibody was then removed, and the plate was washed three times with 1× PBST. 20 μL/well of CellTag (LI-COR, Catalog #926-41090) and IRDye 800CW goat anti-rabbit IgG antibody (LI-COR, Catalog #926-32211), each diluted 1:500 in LI-COR blocking buffer supplemented with 0.1% Tween-20 (Thermo Scientific, Catalog #85114), were added to the plate. The plate was then incubated in the dark, at room temperature for 1 hour followed by three washes with 1× PBST and one wash with H2O. The IRDye secondary antibody signal (800 channel) and the CellTag signal (700 channel) were measured using a Licor Odyssey Imager, and the 800 channel signal was then normalized to the 700 channel signal. IC50 values were calculated using a four-parameter logistic curve fit using Genedata Screener software.

T1 sequence (Q99873 whole entry): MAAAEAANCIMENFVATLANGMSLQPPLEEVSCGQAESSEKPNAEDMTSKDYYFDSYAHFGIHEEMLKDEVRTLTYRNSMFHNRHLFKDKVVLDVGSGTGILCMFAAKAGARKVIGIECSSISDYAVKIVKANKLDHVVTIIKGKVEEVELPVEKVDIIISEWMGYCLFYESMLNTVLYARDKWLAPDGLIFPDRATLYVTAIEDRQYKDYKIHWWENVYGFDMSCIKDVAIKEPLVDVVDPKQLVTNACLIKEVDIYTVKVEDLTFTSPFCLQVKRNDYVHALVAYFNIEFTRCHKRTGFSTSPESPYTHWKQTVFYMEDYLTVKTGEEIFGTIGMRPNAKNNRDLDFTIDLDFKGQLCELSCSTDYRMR

| SMILES | IC50 (PRMT1 [1]) [nM] | IC50 (PRMT1 [2]) [nM] | IC50 (DOHH2 cells; Homo sapiens, DOHH-2, 168 h) [nM] | IC50 (DOHH2 cells) [nM] |
| --- | --- | --- | --- | --- |
| CNCCN(C)Cc1nn2c(c1C1CCC(COC)(COC)CC1)CN(C(=O)C(C)(C)O)CC2 [Example 71, 1-(3-(4,4-bis(methoxy-methyl)cyclohexyl)-2-((methyl(2-(methylamino)-ethyl)amino)methyl)-6,7-dihydropyrazolo[1,5-a]-pyrazin-5(4H)-yl)-2-hydroxy-2-methylpropan-1-one] | 266 | 3480 | 962 |  |
| CNCCN(C)Cc1nn2c(c1C1CCC(COC)(COC)CC1)CN(C(=O)C(C)(C)C1CCC1)CC2 [Example 78, 1-(3-(4,4-bis(methoxy-methyl)cyclohexyl)-2-((methyl(2-(methylamino)-ethyl)amino)methyl)-6,7-dihydropyrazolo[1,5-a]-pyrazin-5(4H)-yl)-2-cyclobutyl-2-methylpropan-1-one] | 68 | 192 | 154 |  |
| CNCCN(C)Cc1nn2c(c1C1CCC(COC)(COC)CC1)CN(C(=O)C1(C)CCOC1)CC2 (stereo not drawn) [Example 76, (3-(4,4-bis(methoxymethyl)-cyclohexyl)-2-((methyl(2-(methylamino)ethyl)amino)-methyl)-6,7-dihydropyrazolo-[1,5-a]pyrazin-5(4H)-yl)(3-methyltetrahydrofuran-3-yl)-methanone] | 86 | 363 | 94 |  |
| COCC1(COC)CCC(c2c(CN(C)CCN)nn3c2CN(C(=O)C2CC(C(F)(F)F)C2)CC3)CC1 (stereo not drawn) [Example 62, (2-(((2-aminoethyl)(methyl)-amino)methyl)-3-(4,4-bis-(methoxymethyl)cyclohexyl)-6,7-dihydropyrazolo[1,5-a]-pyrazin-5(4H)-yl)(3-(trifluoromethyl)cyclobutyl)-methanone] | 23 | 1380 | 76 |  |
| CNCCN(C)Cc1nn2c(c1C1CCC(COC)(COC)CC1)CN(C(=O)CC#N)CC2 [Example 52, 3-(3-(4,4-bis(methoxy-methyl)cyclohexyl)-2-((methyl(2-(methylamino)-ethyl)amino)methyl)-6,7-dihydropyrazolo[1,5-a]-pyrazin-5(4H)-yl)-3-oxopropanenitrile] | 71 | 163 | 514 |  |
| CNCCN(C)Cc1nn2c(c1C1CCC(COC)(COC)CC1)CN(C(=O)C1CC(C(F)F)C1)CC2 (stereo not drawn) [Example 66, (3-(4,4-bis(methoxymethyl)-cyclohexyl)-2-((methyl(2-(methylamino)ethyl)amino)-methyl)-6,7-dihydropyrazolo-[1,5-a]pyrazin-5(4H)-yl)(3-(difluoromethyl)cyclobutyl)-methanone] | 52 | 958 | 150 |  |
| CNCCN(C)Cc1nn2c(c1C1CCC(COC)(COC)CC1)CN(C(=O)C1CCC(F)(F)C1)CC2 (stereo not drawn) [Example 56, (3-(4,4-bis(methoxymethyl)-cyclohexyl)-2-((methyl(2-(methylamino)ethyl)amino)-methyl)-6,7-dihydropyrazolo-[1,5-a]pyrazin-5(4H)-yl)(3,3-difluorocyclopentyl)-methanone] | 54 | 392 | 83 |  |
| CNCCN(C)Cc1nn2c(c1C1CCC(COC)(COC)CC1)CN(C(=O)C1CCCCC1)CC2 [Example 51, (3-(4,4-bis(methoxymethyl)-cyclohexyl)-2-((methyl(2-(methylamino)ethyl)amino)-methyl)-6,7-dihydropyrazolo-[1,5-a]pyrazin-5(4H)-yl)-(cyclohexyl)methanone] | 58 | 10000 | 75 |  |

More lines, main results first:

| IC50 (PRMT1 [1]) [nM] | IC50 (PRMT1 [2]) [nM] | SMILES | IC50 (DOHH2 cells; Homo sapiens, DOHH-2, 168 h) [nM] | IC50 (DOHH2 cells) [nM] |
| --- | --- | --- | --- | --- |
| 84 | 254 | CNCCN(C)Cc1nn2c(c1C1CCC(COC)(COC)CC1)CN(C(=O)C1CC(C)(C)C1)CC2 [Example 77, (3-(4,4-bis(methoxymethyl)-cyclohexyl)-2-((methyl(2-(methylamino)ethyl)amino)-methyl)-6,7-dihydropyrazolo-[1,5-a]pyrazin-5(4H)-yl)(3,3-dimethylcyclobutyl)-methanone] |  | 202 |
| 112 | 315 | CNCCN(C)Cc1nn2c(c1C1CCC(COC)(COC)CC1)CN(C(=O)C(C)COC)CC2 (stereo not drawn) [Example 72, 1-(3-(4,4-bis(methoxy-methyl)cyclohexyl)-2-((methyl(2-(methylamino)-ethyl)amino)methyl)-6,7-dihydropyrazolo[1,5-a]-pyrazin-5(4H)-yl)-3-methoxy-2-methylpropan-1-one] | 310 |  |
| 217 | 688 | CNCCN(C)Cc1nn2c(c1C1CCC(COC)(COC)CC1)CN(C(=O)C1CCC(C)(C)O1)CC2 (stereo not drawn) [Example 79, (3-(4,4-bis(methoxymethyl)-cyclohexyl)-2-((methyl(2-(methylamino)ethyl)amino)-methyl)-6,7-dihydropyrazolo-[1,5-a]pyrazin-5(4H)-yl)(5,5-dimethyltetrahydrofuran-2-yl)methanone] | 303 |  |
| 44 | 260 | COCC1(COC)CCC(c2c(CN(C)CCN)nn3c2CN(C(=O)C(C)(C)C(F)(F)F)CC3)CC1 [Example 70, 1-(2-(((2-aminoethyl)-(methyl)amino)methyl)-3-(4,4-bis(methoxymethyl)-cyclohexyl)-6,7-dihydro-pyrazolo[1,5-a]pyrazin-5(4H)-yl)-3,3,3-trifluoro-2,2-dimethylpropan-1-one] | 195 |  |
